What was measured:
Type in all cases: biochemical
PIM1 = PIM1 (Homo sapiens, UniProt P11309); assay: Kinase selectivity, Table 5: PIM1; conditions: read-out: selectivity data (inhibition), PIM1
p38α = p38α (Homo sapiens, UniProt Q16539); assay: Kinase selectivity, Table 5: p38α; conditions: read-out: selectivity data (inhibition), p38α
INSR = INSR (Homo sapiens, UniProt P06213); assay: Kinase selectivity, Table 5: INSR; conditions: read-out: selectivity data (inhibition), INSR
SGK1 = SGK1 (Homo sapiens, UniProt O00141); assay: Kinase selectivity, Table 5: SGK1; conditions: read-out: selectivity data (inhibition), SGK1
FLT3 = FLT3 (Homo sapiens, UniProt P36888); assay: Kinase selectivity, Table 5: FLT3; conditions: read-out: selectivity data (inhibition), FLT3
PKCζ = PKCζ (Homo sapiens, UniProt Q05513); assay: Kinase selectivity, Table 5: PKCζ; conditions: read-out: selectivity data (inhibition), PKCζ
CDK2 = CDK2 (Homo sapiens, UniProt P24941); assay: Kinase selectivity, Table 5: CDK2; conditions: read-out: selectivity data (inhibition), CDK2
IGF1R = IGF1R (Homo sapiens, UniProt P08069); assay: Kinase selectivity, Table 5: IGF1R; conditions: read-out: selectivity data (inhibition), IGF1R
MARK1 = MARK1 (Homo sapiens, UniProt Q9P0L2); assay: Kinase selectivity, Table 5: MARK1; conditions: read-out: selectivity data (inhibition), MARK1
MSK1 = MSK1 (Homo sapiens, UniProt O75582); assay: Kinase selectivity, Table 5: MSK1; conditions: read-out: selectivity data (inhibition), MSK1
SYK = SYK (Homo sapiens, UniProt P43405); assay: Kinase selectivity, Table 5: SYK; conditions: read-out: selectivity data (inhibition), SYK
PKA = PKA (Homo sapiens, UniProt P17612); assay: Kinase selectivity, Table 5: PKA; conditions: read-out: selectivity data (inhibition), PKA
DYRK1α = DYRK1α (Homo sapiens, UniProt Q13627); assay: Kinase selectivity, Table 5: DYRK1α; conditions: read-out: selectivity data (inhibition), DYRK1α
JAK2 = JAK2 (Homo sapiens, UniProt O60674); assay: Kinase selectivity, Table 5: JAK2; conditions: read-out: selectivity data (inhibition), JAK2
HGK = HGK (Homo sapiens, UniProt O95819); assay: Kinase selectivity, Table 5: HGK; conditions: read-out: selectivity data (inhibition), HGK
SRC = SRC (Homo sapiens, UniProt P12931); assay: Kinase selectivity, Table 5: SRC; conditions: read-out: selectivity data (inhibition), SRC
RSK1 = RSK1 (Homo sapiens, UniProt Q15418); assay: Kinase selectivity, Table 5: RSK1; conditions: read-out: selectivity data (inhibition), RSK1
GSK3β = GSK3β (Homo sapiens, UniProt P49841); assay: Kinase selectivity, Table 5: GSK3β; conditions: read-out: selectivity data (inhibition), GSK3β
ROCK2 = ROCK2 (Homo sapiens, UniProt O75116); assay: Kinase selectivity, Table 5: ROCK2; conditions: read-out: selectivity data (inhibition), ROCK2
c-Raf = c-Raf (Homo sapiens, UniProt P04049); assay: Kinase selectivity, Table 5: c-Raf; conditions: read-out: selectivity data (inhibition), c-Raf
c-Raf, sequence (P04049 whole entry, species assumed): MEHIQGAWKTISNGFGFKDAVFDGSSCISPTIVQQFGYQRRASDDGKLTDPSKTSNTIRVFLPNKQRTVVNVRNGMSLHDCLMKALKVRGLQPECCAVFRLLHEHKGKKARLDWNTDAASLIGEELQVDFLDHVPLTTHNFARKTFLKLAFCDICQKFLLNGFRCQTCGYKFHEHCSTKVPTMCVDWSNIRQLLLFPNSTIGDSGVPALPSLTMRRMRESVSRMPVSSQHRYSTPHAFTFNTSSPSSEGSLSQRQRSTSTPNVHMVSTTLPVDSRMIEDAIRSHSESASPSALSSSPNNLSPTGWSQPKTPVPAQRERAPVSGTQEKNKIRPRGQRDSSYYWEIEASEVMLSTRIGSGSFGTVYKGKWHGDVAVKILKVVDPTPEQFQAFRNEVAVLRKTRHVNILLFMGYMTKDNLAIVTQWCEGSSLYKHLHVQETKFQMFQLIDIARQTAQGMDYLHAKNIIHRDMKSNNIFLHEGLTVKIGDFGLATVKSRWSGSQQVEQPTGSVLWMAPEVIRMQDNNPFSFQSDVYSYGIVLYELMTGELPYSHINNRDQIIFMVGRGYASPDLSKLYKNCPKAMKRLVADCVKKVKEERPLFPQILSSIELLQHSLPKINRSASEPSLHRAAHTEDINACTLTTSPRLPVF

KDR = KDR (Homo sapiens, UniProt P35968); assay: Kinase selectivity, Table 5: KDR; conditions: read-out: selectivity data (inhibition), KDR
PKCβ2 = PKCβ2 (Homo sapiens, UniProt P05771); assay: Kinase selectivity, Table 5: PKCβ2; conditions: read-out: selectivity data (inhibition), PKCβ2
Erk2 = Erk2 (Homo sapiens, UniProt P28482); assay: Kinase selectivity, Table 5: Erk2; conditions: read-out: selectivity data (inhibition), Erk2
CAMK4 = CAMK4 (Homo sapiens, UniProt Q16566); assay: Kinase selectivity, Table 5: CAMK4; conditions: read-out: selectivity data (inhibition), CAMK4
CAMK4, sequence (Q16566 whole entry): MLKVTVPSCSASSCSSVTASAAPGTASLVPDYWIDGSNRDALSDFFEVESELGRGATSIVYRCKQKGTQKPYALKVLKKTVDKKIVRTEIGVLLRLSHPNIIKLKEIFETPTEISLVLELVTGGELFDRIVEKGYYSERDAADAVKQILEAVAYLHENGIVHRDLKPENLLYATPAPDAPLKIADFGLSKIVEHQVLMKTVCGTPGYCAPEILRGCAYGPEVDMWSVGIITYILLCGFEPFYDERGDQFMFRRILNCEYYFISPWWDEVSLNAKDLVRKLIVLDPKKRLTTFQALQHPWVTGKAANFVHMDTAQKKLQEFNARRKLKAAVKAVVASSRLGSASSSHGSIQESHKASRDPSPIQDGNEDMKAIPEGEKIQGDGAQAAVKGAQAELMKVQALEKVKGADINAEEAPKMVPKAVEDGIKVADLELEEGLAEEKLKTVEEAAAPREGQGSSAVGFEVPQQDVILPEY

FGFR1 = FGFR1 (Homo sapiens, UniProt P11362); assay: Kinase selectivity, Table 5: FGFR1; conditions: read-out: selectivity data (inhibition), FGFR1
FGFR1, sequence (P11362 22-822, species assumed): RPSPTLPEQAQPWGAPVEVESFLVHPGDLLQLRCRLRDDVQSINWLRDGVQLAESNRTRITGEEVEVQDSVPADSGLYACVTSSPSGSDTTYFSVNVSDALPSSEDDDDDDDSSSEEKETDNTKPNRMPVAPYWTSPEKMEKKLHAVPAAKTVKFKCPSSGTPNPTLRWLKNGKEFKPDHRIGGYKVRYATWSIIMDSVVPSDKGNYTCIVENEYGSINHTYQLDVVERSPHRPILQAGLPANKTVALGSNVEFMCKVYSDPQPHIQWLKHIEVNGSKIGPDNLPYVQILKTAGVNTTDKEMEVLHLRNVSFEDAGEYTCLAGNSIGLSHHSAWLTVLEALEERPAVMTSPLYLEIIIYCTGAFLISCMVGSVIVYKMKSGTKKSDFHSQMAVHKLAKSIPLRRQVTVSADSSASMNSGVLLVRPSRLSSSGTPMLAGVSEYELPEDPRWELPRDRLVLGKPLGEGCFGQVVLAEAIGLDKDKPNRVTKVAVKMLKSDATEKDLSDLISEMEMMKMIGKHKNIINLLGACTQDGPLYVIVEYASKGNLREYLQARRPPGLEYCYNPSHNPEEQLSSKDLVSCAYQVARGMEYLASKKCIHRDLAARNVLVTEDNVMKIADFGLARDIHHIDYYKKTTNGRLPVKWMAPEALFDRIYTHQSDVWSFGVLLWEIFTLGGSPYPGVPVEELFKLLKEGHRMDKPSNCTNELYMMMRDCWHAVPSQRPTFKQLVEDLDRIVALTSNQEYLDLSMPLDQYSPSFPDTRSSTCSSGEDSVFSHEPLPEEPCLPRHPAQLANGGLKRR

AurA = AurA (Homo sapiens, UniProt O14965); assay: Kinase selectivity, Table 5: AurA; conditions: read-out: selectivity data (inhibition), AurA
AurA, sequence (O14965 whole entry, species assumed): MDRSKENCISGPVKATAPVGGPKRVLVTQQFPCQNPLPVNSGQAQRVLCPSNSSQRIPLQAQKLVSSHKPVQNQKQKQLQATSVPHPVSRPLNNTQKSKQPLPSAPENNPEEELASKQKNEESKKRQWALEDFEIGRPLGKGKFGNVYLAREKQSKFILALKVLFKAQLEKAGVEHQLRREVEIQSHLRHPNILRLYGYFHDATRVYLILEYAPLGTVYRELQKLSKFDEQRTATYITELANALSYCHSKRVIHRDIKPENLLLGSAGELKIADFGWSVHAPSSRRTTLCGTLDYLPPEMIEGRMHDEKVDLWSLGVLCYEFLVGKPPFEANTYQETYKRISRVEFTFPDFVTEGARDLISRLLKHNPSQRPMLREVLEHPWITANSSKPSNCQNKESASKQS

IRAK4 = IRAK4 (Homo sapiens, UniProt Q9NWZ3); assay: Kinase selectivity, Table 5: IRAK4; conditions: read-out: selectivity data (inhibition), IRAK4
IRAK4, sequence (Q9NWZ3 whole entry, species assumed): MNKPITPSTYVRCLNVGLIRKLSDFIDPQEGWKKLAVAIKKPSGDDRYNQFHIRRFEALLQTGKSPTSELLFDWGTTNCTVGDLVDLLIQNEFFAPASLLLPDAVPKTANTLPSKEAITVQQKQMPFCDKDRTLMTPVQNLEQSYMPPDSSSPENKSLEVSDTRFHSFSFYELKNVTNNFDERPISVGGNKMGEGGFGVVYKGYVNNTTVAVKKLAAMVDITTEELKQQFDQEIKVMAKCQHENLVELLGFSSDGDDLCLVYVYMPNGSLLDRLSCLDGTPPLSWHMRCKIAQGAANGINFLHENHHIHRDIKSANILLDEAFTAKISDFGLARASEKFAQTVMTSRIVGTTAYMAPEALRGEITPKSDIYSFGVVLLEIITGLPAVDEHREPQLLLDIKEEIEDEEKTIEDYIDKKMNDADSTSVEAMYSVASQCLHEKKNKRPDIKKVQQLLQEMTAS

FLT3(D835Y) = FLT3(D835Y) (Homo sapiens, UniProt P36888, D835Y); assay: Kinase selectivity, Table 5: FLT3(D835Y); conditions: read-out: selectivity data (inhibition), FLT3(D835Y)
JNK2 = JNK2 (Homo sapiens, UniProt P45984); assay: Kinase selectivity, Table 5: JNK2; conditions: read-out: selectivity data (inhibition), JNK2
MAPKAPK2 = MAPKAPK2 (Homo sapiens, UniProt P49137); assay: Kinase selectivity, Table 5: MAPKAPK2; conditions: read-out: selectivity data (inhibition), MAPKAPK2
MAPKAPK2, sequence (P49137 whole entry, species assumed): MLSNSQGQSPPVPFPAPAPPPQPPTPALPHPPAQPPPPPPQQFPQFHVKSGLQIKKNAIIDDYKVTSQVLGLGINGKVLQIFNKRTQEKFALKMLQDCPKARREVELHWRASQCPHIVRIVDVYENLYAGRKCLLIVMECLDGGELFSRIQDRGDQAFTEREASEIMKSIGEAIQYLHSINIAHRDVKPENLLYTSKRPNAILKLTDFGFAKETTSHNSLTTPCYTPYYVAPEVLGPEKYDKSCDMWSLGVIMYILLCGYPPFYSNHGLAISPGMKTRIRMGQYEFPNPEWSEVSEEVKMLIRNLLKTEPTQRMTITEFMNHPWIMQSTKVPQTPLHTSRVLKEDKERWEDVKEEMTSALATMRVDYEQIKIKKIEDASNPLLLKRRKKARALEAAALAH

PKD2 = PKD2 (Homo sapiens, UniProt Q9BZL6); assay: Kinase selectivity, Table 5: PKD2; conditions: read-out: selectivity data (inhibition), PKD2
MST2 = MST2 (Homo sapiens, UniProt Q13188); assay: Kinase selectivity, Table 5: MST2; conditions: read-out: selectivity data (inhibition), MST2
CHK1 = CHK1 (Homo sapiens, UniProt O14757); assay: Kinase selectivity, Table 5: CHK1; conditions: read-out: selectivity data (inhibition), CHK1
LCK = LCK (Homo sapiens, UniProt P06239); assay: Kinase selectivity, Table 5: LCK; conditions: read-out: selectivity data (inhibition), LCK
LCK, sequence (P06239 whole entry, species assumed): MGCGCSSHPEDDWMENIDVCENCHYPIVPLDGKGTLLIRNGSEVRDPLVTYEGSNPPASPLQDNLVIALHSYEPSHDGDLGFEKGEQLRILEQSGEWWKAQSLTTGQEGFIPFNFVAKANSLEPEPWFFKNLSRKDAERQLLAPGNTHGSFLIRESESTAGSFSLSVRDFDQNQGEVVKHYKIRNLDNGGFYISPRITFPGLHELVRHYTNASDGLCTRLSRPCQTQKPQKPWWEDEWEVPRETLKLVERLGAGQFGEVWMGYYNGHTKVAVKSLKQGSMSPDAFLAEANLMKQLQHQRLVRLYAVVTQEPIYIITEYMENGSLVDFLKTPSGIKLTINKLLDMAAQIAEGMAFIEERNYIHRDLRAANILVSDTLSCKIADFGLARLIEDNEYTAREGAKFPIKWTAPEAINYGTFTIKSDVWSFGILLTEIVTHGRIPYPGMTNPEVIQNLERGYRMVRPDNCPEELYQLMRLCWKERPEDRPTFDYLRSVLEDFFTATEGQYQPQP

INSR, sequence (P06213 28-1382, species assumed): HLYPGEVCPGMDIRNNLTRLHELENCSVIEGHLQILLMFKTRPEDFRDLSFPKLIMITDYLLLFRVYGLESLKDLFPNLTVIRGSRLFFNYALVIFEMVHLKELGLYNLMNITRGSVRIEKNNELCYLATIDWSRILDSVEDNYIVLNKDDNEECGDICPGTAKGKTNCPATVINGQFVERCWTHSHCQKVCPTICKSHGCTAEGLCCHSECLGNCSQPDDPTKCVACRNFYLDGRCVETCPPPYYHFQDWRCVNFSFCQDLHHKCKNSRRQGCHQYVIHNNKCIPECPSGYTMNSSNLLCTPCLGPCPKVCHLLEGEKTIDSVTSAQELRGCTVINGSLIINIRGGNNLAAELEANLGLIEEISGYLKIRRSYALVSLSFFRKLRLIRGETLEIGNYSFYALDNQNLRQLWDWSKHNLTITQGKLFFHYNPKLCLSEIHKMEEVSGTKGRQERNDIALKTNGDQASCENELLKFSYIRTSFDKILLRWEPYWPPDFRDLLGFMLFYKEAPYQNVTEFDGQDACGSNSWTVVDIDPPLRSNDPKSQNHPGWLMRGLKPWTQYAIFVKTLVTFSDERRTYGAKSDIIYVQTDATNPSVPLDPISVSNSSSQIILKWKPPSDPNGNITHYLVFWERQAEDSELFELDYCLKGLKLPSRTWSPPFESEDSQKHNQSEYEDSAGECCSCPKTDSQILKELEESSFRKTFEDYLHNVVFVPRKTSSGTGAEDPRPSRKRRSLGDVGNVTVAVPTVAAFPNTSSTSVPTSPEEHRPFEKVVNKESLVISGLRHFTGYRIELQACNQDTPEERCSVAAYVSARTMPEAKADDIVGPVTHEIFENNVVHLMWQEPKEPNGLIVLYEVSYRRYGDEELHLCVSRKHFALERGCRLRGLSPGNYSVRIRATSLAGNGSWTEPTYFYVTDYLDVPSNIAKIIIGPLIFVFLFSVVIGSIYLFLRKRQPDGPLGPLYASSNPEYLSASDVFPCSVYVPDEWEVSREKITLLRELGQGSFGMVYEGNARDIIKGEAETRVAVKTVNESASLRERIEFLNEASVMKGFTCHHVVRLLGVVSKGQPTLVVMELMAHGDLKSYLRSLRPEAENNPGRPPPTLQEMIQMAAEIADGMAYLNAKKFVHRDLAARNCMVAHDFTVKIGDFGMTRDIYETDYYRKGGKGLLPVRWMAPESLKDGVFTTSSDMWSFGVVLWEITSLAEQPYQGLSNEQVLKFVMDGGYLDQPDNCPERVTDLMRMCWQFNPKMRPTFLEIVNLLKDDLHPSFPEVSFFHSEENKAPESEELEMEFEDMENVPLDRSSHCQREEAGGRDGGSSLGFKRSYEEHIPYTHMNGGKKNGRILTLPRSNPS

CC(C)c1ccc(C=C2SC(=O)NC2=O)cc1 [5-(4-iso-propylbenzylidene)thiazolidine-2,4-dione]
inhibition at 5 µM (PIM1): 36% | inhibition at 5 µM (p38α): 0% | inhibition at 5 µM (INSR): 4% | inhibition at 5 µM (SGK1): 5% | inhibition at 5 µM (FLT3): 1% | inhibition at 5 µM (PKCζ): 3% | inhibition at 5 µM (CDK2): -2% | inhibition at 5 µM (IGF1R): -1% | inhibition at 5 µM (MARK1): -6% | inhibition at 5 µM (MSK1): -1% | inhibition at 5 µM (SYK): -3% | inhibition at 5 µM (PKA): 3% | inhibition at 5 µM (DYRK1α): 68% | inhibition at 5 µM (JAK2): 18% | inhibition at 5 µM (HGK): 9% | inhibition at 5 µM (SRC): 4% | inhibition at 5 µM (RSK1): 5% | inhibition at 5 µM (GSK3β): 3% | inhibition at 5 µM (ROCK2): 5% | inhibition at 5 µM (c-Raf): -1% | inhibition at 5 µM (KDR): -4% | inhibition at 5 µM (PKCβ2): -1% | inhibition at 5 µM (Erk2): -1% | inhibition at 5 µM (CAMK4): -8% | inhibition at 5 µM (FGFR1): 1% | inhibition at 5 µM (AurA): 4% | inhibition at 5 µM (IRAK4): 5% | inhibition at 5 µM (FLT3(D835Y)): 9% | inhibition at 5 µM (JNK2): 14% | inhibition at 5 µM (MAPKAPK2): 5% | inhibition at 5 µM (PKD2): -3% | inhibition at 5 µM (MST2): 1% | inhibition at 5 µM (CHK1): -20% | inhibition at 5 µM (LCK): 3%

From patent US20110263664A1, “Inhibitors of PIM-1 Protein Kinases, Compositions and Methods for Treating Prostate Cancer” (MUSC FOUNDATION FOR RESEARCH DEVELOPMENT, priority 2007, published 2011)
